Measured values from ChEMBL document CHEMBL1641495, “8-Aza-7,9-dideazaxanthine acyclic nucleoside phosphonate inhibitors of thymidine phosphorylase” (Bioorg Med Chem Lett, 2011).

Tests used:
[1] = biological target: T1, Thymidine phosphorylase (Escherichia coli K-12, UniProt P07650); assay: Inhibition of [3H]methylthymidine binding to Escherichia coli thymidine phosphorylase after 20 mins by scintillation counting
[2] = biological target: T1, Thymidine phosphorylase; assay: Inhibition of [3H]methylthymidine binding to Escherichia coli thymidine phosphorylase after 10 mins by scintillation counting
[3] = biological target: Thymidine phosphorylase (Escherichia coli K-12) (UniProt P07650); assay: Inhibition of [3H]methylthymidine binding to Escherichia coli thymidine phosphorylase at 20 uM after 20 mins by scintillation counting
[4] = biological target: Thymidine phosphorylase (Escherichia coli K-12) (UniProt P07650); assay: Inhibition of [3H]methylthymidine binding to Escherichia coli thymidine phosphorylase at 100 uM after 20 mins by scintillation counting

T1 sequence (P07650 whole entry): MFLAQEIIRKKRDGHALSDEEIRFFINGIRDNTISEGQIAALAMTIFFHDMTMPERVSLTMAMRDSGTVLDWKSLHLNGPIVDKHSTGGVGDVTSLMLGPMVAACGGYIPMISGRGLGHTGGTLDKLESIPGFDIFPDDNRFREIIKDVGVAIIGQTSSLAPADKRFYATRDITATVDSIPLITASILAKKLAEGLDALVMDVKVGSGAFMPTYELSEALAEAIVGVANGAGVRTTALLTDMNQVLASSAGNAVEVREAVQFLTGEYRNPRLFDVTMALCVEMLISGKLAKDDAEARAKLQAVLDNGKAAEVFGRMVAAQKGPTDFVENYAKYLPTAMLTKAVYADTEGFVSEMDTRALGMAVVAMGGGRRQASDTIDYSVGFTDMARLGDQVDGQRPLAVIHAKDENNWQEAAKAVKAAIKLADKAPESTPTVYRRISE
Sequence of Thymidine phosphorylase (Escherichia coli K-12) (P07650 whole entry, looked up): as the sequence (P07650 whole entry) above

| SMILES | IC50 [1] [µM] | IC50 [2] [µM] | inhibition [3] [%] | inhibition [4] [%] |
| --- | --- | --- | --- | --- |
| O=c1[nH]c(=O)c2cn(CCCCCCCCP(=O)(O)O)cc2[nH]1 | 12 | – | – | – |
| O=c1[nH]c(=O)n(CCCCCCCCP(=O)(O)O)c2[nH]ccc12 | – | 11.4 | 48 | 83 |
| O=c1[nH]c(=O)c2cn(CCCCCCCCn3cc4[nH]c(=O)[nH]c(=O)c4c3)cc2[nH]1 | 3.5 | – | – | – |
| O=c1[nH]c(=O)n(CCCCCCCCP(=O)(O)O)c2c[nH]cc12 | 6.8 | – | – | – |
